Tests used:
[1] = test system: BaF3-FL KIT D816V or BaF3-FL KIT V560G/D816V cell line; assay: Cell-based assays of c-Kit mutant kinase activity (cell proliferation, ATPlite); details: at least one of the c-kit cell assays of Example 7
How it was run: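 BaF3 cells dependent on transfected full-length human KIT D816V or V560G/D816V (pCI-Neo, CMV promoter) were seeded at 1×10^4 cells/well and exposed to 8-point 1:3 dilutions from 10 μM top (0.2% DMSO) for three days at 37° C. ATPlite luminescence gave cell number; IC50 from concentration-response.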

[2] = biological target: c-kit mutant D816V (Homo sapiens (Human), UniProt P10721, D816V/DEL694-753); assay: c-Kit mutant D816V biochemical assay (AlphaScreen kinase activity)
How it was run: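 Recombinant His-tagged c-Kit D816V kinase domain (residues 551-934, insert 694-753 deleted, E. coli-expressed) phosphorylating 30 nM biotin-(E4Y)10 with 10 μM ATP, HEPES pH 7.2, Mg/Mn, 5% DMSO; 30 min, room temperature. Phosphorylation detected by AlphaScreen (streptavidin donor/PY30 acceptor beads); IC50 from 8-point 1:3 series.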

c-kit mutant D816V, sequence (P10721 other isoform, or with tags, fused parts or gaps D816V/del 694-753): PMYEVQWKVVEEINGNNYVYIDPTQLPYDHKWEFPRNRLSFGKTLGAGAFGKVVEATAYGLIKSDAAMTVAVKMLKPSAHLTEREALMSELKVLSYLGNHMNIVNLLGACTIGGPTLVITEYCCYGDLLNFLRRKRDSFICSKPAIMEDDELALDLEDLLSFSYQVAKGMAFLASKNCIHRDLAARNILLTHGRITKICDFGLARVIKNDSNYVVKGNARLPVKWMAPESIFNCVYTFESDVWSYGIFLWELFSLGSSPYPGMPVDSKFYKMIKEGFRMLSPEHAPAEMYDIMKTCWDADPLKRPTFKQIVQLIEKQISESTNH

Compound | IC50 [1] [nM] | IC50 [2] [µM]
COc1cccc(-c2[nH]c(C3CCN(c4ncnc5[nH]c(-c6ccnc(OC)c6)cc45)CC3)nc2C)c1 [P-3022, 4-[4-[5-(3-methoxyphenyl)-4-methyl-1H-imidazol-2-yl]-1-piperidyl]-6-(2-methoxy-4-pyridyl)-7H-pyrrolo[2,3-d]pyrimidine] | < 10000 | 0.0001 to 1
COc1cc(-c2cc3c(N4CCC(c5nc(C)c(-c6cccc(F)c6)[nH]5)CC4)ncnc3[nH]2)ccn1 [P-3019, 4-[4-[5-(3-fluorophenyl)-4-methyl-1H-imidazol-2-yl]-1-piperidyl]-6-(2-methoxy-4-pyridyl)-7H-pyrrolo[2,3-d]pyrimidine] | < 10000 | 0.0001 to 1
COc1ccc(-c2[nH]c(C3(C)CCN(c4ncnc5[nH]c(-c6ccc(C#N)cc6)cc45)CC3)nc2C)cc1C [P-3053, 4-[4-[4-[5-(4-methoxy-3-methyl-phenyl)-4-methyl-1H-imidazol-2-yl]-4-methyl-1-piperidyl]-7H-pyrrolo[2,3-d]pyrimidin-6-yl]benzonitrile] | < 10000 | 0.0001 to 1
CCOc1cc(-c2cc3c(N4CCC(c5nc(C)c(-c6ccccc6)[nH]5)CC4)ncnc3[nH]2)ccn1 [P-3075, 6-(2-ethoxy-4-pyridyl)-4-[4-(4-methyl-5-phenyl-1H-imidazol-2-yl)-1-piperidyl]-7H-pyrrolo[2,3-d]pyrimidine] | < 10000 | 0.0001 to 1
Cc1nc(C2CCN(c3ncnc4[nH]c(-c5ccc(F)cc5)cc34)CC2)[nH]c1-c1ccccc1 [P-3002, 6-(4-fluorophenyl)-4-[4-(4-methyl-5-phenyl-1H-imidazol-2-yl)-1-piperidyl]-7H-pyrrolo[2,3-d]pyrimidine] | < 10000 | 0.0001 to 1
COc1ccc(-c2[nH]c(C3(C)CCN(c4ncnc5[nH]c(-c6ccc(C#N)nc6)cc45)CC3)nc2C)cc1C [P-3250, 5-[4-[4-[5-(4-methoxy-3-methyl-phenyl)-4-methyl-1H-imidazol-2-yl]-4-methyl-1-piperidyl]-7H-pyrrolo[2,3-d]pyrimidin-6-yl]pyridine-2-carbonitrile] | < 10000 | 0.0001 to 1
COc1cccc(-c2[nH]c(C3(C)CCN(c4ncnc5[nH]c(-c6ccc(C#N)nc6)cc45)CC3)nc2C)c1 [P-3256, 5-[4-[4-[5-(3-methoxyphenyl)-4-methyl-1H-imidazol-2-yl]-4-methyl-1-piperidyl]-7H-pyrrolo[2,3-d]pyrimidin-6-yl]pyridine-2-carbonitrile] | < 10000 | 0.0001 to 1
COc1ccc(-c2[nH]c(C3CCN(c4ncnc5[nH]c(-c6ccc(F)cc6)cc45)CC3)nc2C)cc1 [P-3028, 6-(4-fluorophenyl)-4-[4-[5-(4-methoxyphenyl)-4-methyl-1H-imidazol-2-yl]-1-piperidyl]-7H-pyrrolo[2,3-d]pyrimidine] | < 10000 | 0.0001 to 1
Cc1nc(C2(C)CCN(c3ncnc4[nH]c(-c5ccc(NS(C)(=O)=O)cc5)cc34)CC2)[nH]c1-c1ccc(C(F)F)cc1 [P-3252, N-[4-[4-[4-[5-[4-(difluoromethyl)phenyl]-4-methyl-1H-imidazol-2-yl]-4-methyl-1-piperidyl]-7H-pyrrolo[2,3-d]pyrimidin-6-yl]phenyl]methanesulfonamide] | < 10000 | 0.0001 to 1
CCc1ccc(-c2[nH]c(C3CCN(c4ncnc5[nH]c(-c6ccnc(OC)c6)cc45)CC3)nc2C)cc1 [P-3059, 4-[4-[5-(4-ethylphenyl)-4-methyl-1H-imidazol-2-yl]-1-piperidyl]-6-(2-methoxy-4-pyridyl)-7H-pyrrolo[2,3-d]pyrimidine] | < 10000 | 0.0001 to 1
Cc1nc(C2CCN(c3ncnc4[nH]c(-c5ccc(C(N)=O)cc5)cc34)CC2)[nH]c1-c1ccccc1 [P-3044, 4-[4-[4-(4-methyl-5-phenyl-1H-imidazol-2-yl)-1-piperidyl]-7H-pyrrolo[2,3-d]pyrimidin-6-yl]benzamide] | < 10000 | 0.0001 to 1
Cc1nc(C2CCN(c3ncnc4[nH]c(-c5ccnc(N6CCC(C)CC6)c5)cc34)CC2)[nH]c1-c1ccccc1 [P-3077, 4-[4-(4-methyl-5-phenyl-1H-imidazol-2-yl)-1-piperidyl]-6-[2-(4-methyl-1-piperidyl)-4-pyridyl]-7H-pyrrolo[2,3-d]pyrimidine] | < 10000 | 0.0001 to 1
CCOc1cccc(-c2[nH]c(C3CCN(c4ncnc5[nH]c(-c6ccc(F)cc6)cc45)CC3)nc2C)c1 [P-3024, 4-[4-[5-(3-ethoxyphenyl)-4-methyl-1H-imidazol-2-yl]-1-piperidyl]-6-(4-fluorophenyl)-7H-pyrrolo[2,3-d]pyrimidine] | < 10000 | 0.0001 to 1
Cc1nc(C2CCN(c3ncnc4[nH]c(-c5cccc(F)c5)cc34)CC2)[nH]c1-c1ccccc1 [P-3081, 6-(3-fluorophenyl)-4-[4-(4-methyl-5-phenyl-1H-imidazol-2-yl)-1-piperidyl]-7H-pyrrolo[2,3-d]pyrimidine] | < 10000 | 0.0001 to 1
Cc1nc(C2CCN(c3ncnc4[nH]c(-c5ccnc(N6CCOCC6)c5)cc34)CC2)[nH]c1-c1ccccc1 [P-3076, 4-[4-[4-[4-(4-methyl-5-phenyl-1H-imidazol-2-yl)-1-piperidyl]-7H-pyrrolo[2,3-d]pyrimidin-6-yl]-2-pyridyl]morpholine] | < 10000 | 0.0001 to 1
COc1cc(-c2cc3c(N4CCC(c5nc(C)c(-c6ccc7c(c6)OCO7)[nH]5)CC4)ncnc3[nH]2)ccn1 [P-3070, 4-[4-[5-(1,3-benzodioxol-5-yl)-4-methyl-1H-imidazol-2-yl]-1-piperidyl]-6-(2-methoxy-4-pyridyl)-7H-pyrrolo[2,3-d]pyrimidine] | < 10000 | 0.0001 to 1
Cc1nc(C2CCN(c3ncnc4[nH]c(-c5cccc(NS(C)(=O)=O)c5)cc34)CC2)[nH]c1-c1ccccc1 [P-3083, N-[3-[4-[4-(4-methyl-5-phenyl-1H-imidazol-2-yl)-1-piperidyl]-7H-pyrrolo[2,3-d]pyrimidin-6-yl]phenyl]methane sulfonamide] | < 10000 | 0.0001 to 1
Cc1nc(C2CCN(c3ncnc4[nH]c(-c5ccnc(N6CCCC6)c5)cc34)CC2)[nH]c1-c1ccccc1 [P-3079, 4-[4-(4-methyl-5-phenyl-1H-imidazol-2-yl)-1-piperidyl]-6-(2-pyrrolidin-1-yl-4-pyridyl)-7H-pyrrolo[2,3-d]pyrimidine] | < 10000 | 0.0001 to 1
Cc1nc(C2CCN(c3ncnc4[nH]c(-c5cccc(S(N)(=O)=O)c5)cc34)CC2)[nH]c1-c1ccccc1 [P-3051, 3-[4-[4-(4-methyl-5-phenyl-1H-imidazol-2-yl)-1-piperidyl]-7H-pyrrolo[2,3-d]pyrimidin-6-yl]benzenesulfonamide] | < 10000 | 0.0001 to 1
Cc1nc(C2(C)CCN(c3ncnc4[nH]c(-c5ccc(C(N)=O)cc5)cc34)CC2)[nH]c1-c1ccc(OC(F)F)cc1 [P-3253, 4-[4-[4-[5-[4-(difluoromethoxy)phenyl]-4-methyl-1H-imidazol-2-yl]-4-methyl-1-piperidyl]-7H-pyrrolo[2,3-d]pyrimidin-6-yl]benzamide] | < 10000 | 0.0001 to 1
Cc1nc(C2CCN(c3ncnc4[nH]c(-c5ccc(C#N)cc5)cc34)CC2)[nH]c1-c1ccc(Cl)cc1 [P-3038, 4-[4-[4-[5-(4-chlorophenyl)-4-methyl-1H-imidazol-2-yl]-1-piperidyl]-7H-pyrrolo[2,3-d]pyrimidin-6-yl]benzonitrile] | < 10000 | 0.0001 to 1
COc1ccc(-c2[nH]c(C3CCN(c4ncnc5[nH]c(-c6ccc(C#N)cc6)cc45)CC3)nc2C)cc1OC [P-3039, 4-[4-[4-[5-(3,4-dimethoxyphenyl)-4-methyl-1H-imidazol-2-yl]-1-piperidyl]-7H-pyrrolo[2,3-d]pyrimidin-6-yl]benzonitrile] | < 10000 | 0.0001 to 1
COc1ccc(-c2[nH]c(C3(C)CCN(c4ncnc5[nH]c(-c6ccc(C#N)cc6)cc45)CC3)nc2C)cc1 [P-3043, 4-[4-[4-[5-(4-methoxyphenyl)-4-methyl-1H-imidazol-2-yl]-4-methyl-1-piperidyl]-7H-pyrrolo[2,3-d]pyrimidin-6-yl]benzonitrile] | < 10000 | 0.0001 to 1
CCOc1ccc(-c2[nH]c(C3CCN(c4ncnc5[nH]c(-c6ccnc(OC)c6)cc45)CC3)nc2C)cc1 [P-3031, 4-[4-[5-(4-ethoxyphenyl)-4-methyl-1H-imidazol-2-yl]-1-piperidyl]-6-(2-methoxy-4-pyridyl)-7H-pyrrolo[2,3-d]pyrimidine] | < 10000 | 0.0001 to 1
COc1ccc(-c2[nH]c(C3(C)CCN(c4ncnc5[nH]c(-c6ccc(F)cc6)cc45)CC3)nc2C)cc1C [P-3052, 6-(4-fluorophenyl)-4-[4-[5-(4-methoxy-3-methyl-phenyl)-4-methyl-1H-imidazol-2-yl]-4-methyl-1-piperidyl]-7H-pyrrolo[2,3-d]pyrimidine] | < 10000 | 0.0001 to 1
Cc1nc(C2CCN(c3ncnc4[nH]c(-c5ccc(F)cc5)cc34)CC2)[nH]c1-c1ccc2c(c1)OCCO2 [P-3084, 4-[4-[5-(2,3-dihydro-1,4-benzodioxin-6-yl)-4-methyl-1H-imidazol-2-yl]-1-piperidyl]-6-(4-fluorophenyl)-7H-pyrrolo[2,3-d]pyrimidine] | < 10000 | 0.0001 to 1
Cc1nc(C2CCN(c3ncnc4[nH]c(-c5ccc(F)cc5)cc34)CC2)[nH]c1-c1ccc2c(c1)OCO2 [P-3068, 4-[4-[5-(1,3-benzodioxol-5-yl)-4-methyl-1H-imidazol-2-yl]-1-piperidyl]-6-(4-fluorophenyl)-7H-pyrrolo[2,3-d]pyrimidine] | < 10000 | 0.0001 to 1

Reference: patent US9771369B2, “Compounds and methods for kinase modulation, and indications therefor” (Plexxikon Inc., priority 2014, dated 2017)
